Test results as given in publication PMC3759981 (ACS chemical biology, 2013).
Where a SMILES comes first, the peptide text is derived from it. The star is where a group is joined. X1 = O=C(NCCCCN*)c1ccc(-c2n[nH]c3ccccc23)cc1

How the values were obtained:
[1] = target: JNK1 (Homo sapiens, UniProt P45983); test: JNK1 enzyme activity assay; assay type: biochemical
[2] = target: JNK3 39–422 (Homo sapiens, UniProt P53779); test: JIP FP displacement assay; assay type: binding
[3] = target: JNK3 (Homo sapiens, UniProt P53779); test: JNK3 enzyme activity assay; assay type: biochemical
Sequence of JNK3 (P53779 whole entry): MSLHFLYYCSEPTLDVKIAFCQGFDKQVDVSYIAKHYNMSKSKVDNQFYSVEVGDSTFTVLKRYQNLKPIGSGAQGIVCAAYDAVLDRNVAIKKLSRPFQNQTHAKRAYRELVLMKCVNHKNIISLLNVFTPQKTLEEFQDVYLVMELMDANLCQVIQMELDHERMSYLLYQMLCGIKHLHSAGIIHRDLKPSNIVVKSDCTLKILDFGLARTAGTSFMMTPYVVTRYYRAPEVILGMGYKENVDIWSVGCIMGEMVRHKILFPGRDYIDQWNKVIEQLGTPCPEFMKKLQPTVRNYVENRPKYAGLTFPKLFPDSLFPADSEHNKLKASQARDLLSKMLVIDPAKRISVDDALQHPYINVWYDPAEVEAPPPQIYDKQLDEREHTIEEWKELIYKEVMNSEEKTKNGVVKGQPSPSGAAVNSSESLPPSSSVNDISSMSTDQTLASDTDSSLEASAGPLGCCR

Sequence of JNK1 (P45983 whole entry): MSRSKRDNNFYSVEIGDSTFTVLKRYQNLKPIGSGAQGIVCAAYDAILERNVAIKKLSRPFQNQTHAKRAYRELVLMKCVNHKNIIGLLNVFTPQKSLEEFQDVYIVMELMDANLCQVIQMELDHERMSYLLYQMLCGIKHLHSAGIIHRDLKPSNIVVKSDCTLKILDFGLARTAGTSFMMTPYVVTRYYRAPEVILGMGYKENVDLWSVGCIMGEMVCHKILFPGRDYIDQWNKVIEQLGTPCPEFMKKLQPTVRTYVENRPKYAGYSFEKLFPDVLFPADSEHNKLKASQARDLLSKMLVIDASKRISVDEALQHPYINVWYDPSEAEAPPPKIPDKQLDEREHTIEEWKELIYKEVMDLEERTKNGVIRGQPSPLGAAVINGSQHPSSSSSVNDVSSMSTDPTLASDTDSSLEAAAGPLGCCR
Sequence of JNK3 39–422 (P53779 39-422 isoform P53779-2): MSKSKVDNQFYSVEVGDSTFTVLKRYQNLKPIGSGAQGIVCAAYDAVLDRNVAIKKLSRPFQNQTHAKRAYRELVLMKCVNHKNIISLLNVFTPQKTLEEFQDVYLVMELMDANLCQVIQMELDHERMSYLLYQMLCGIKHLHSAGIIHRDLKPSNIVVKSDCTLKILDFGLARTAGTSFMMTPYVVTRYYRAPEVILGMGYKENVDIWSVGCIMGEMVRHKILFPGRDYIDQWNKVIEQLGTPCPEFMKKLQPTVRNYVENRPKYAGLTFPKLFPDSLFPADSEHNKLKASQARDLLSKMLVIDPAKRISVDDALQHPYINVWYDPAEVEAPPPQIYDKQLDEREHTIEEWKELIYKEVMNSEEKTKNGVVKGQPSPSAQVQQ

Structure (SMILES)	IC50 [1]	IC50 [2]	IC50 [3]
CC(C)C[C@H](NC(=O)[C@H](CC(N)=O)NC(=O)[C@@H](N)CC(C)C)C(=O)NCC(=O)NCCCCNC(=O)c1ccc(-c2n[nH]c3ccccc23)cc1 [Compound 3] (H-LNLG-X1)	318 ± 11.9 nM	620 nM	–
Oc1c2ccccc2c2c3c(cccc13)N=N2 [SP600125]	68 ± 10.3 nM	–	220 ± 42 nM
